The text below walks through data of US12129491B2, “Methods and compositions relating to lung cell differentiation” (CHILDREN'S MEDICAL CENTER CORPORATION, priority 2016, dated 2024).

Each structure is given as a SMILES string.

Holding throughout (format): cell-based, mouse
Assay [1] deals with BASC (Bronchioalveolar Stem Cell) cultures. Kind of assay: 3D organoid culture of BASC: organoid morphology, lineage and staining. The source says: (§1) Quantification and statistical analysis of organoid morphologies from cultures grown with UNC0638 or DMSO control. *=P<0.05, two tailed independent samples T-test
Graphs depicts quantification of organoid lineage proportions in UNC0638 and DMSO treated cultures. On the top graph bronchiolar and tracheobronichiolar organoids are counted separately. On the bottom graph these organoids are counted together. *=P<0.05, two tailed independent samples T-test
FIG. 6 depicts graphs of the quantification of PAS and Alcian Blue Stained Organoids in DMSO and UNC0638 treated Organoids.
(§2) AT2 cells are only capable of producing alveolar morphological organoids (FIG. 3).
(§3) UNC0638 treatment reduces the proportion of Sca-1+ve alveolar organoids and increases the proportion of small, undifferentiated organoids. (FIG. 4) 250 nM UNC0638 reduces alveolar colony formation and increase ciliated organoid formation (FIG. 5).
Organoids with visible movement are observed in control cultures, but are more frequent in 250 nM UNC0638 treated cultures. […] Some organoids in UNC0638 cultures (and some rare organoids in DMSO cultures) can be seen to be visibly moving. They have currents in their lumen causing material within to move around. […] Currents are always counter clockwise, consistent with direction of cilia.
Ciliated organoids have large amounts of material that stain for PAS and Alcian Blue, like mucus produced by goblet cells in the lung upper airways. This material is likely what can be seen to revolve in the organoids with interior lumen currents. G9a/G1p inhibition increases the proportion and overall number of PAS/Alcian Blue Staining Organoids (FIG. 6). PAS stained cells resemble goblet cells that produce mucus in the upper airway. […] This is precisely the same as the lung upper airways which have a lower layer of p63+ Keratin 5+ stem cells known as basal cells.

In assay [2] the test system is CK1750 and SC241 cell lines. Kind of assay: Flow cytometry screen of adenocarcinoma cell lines for stem cell surface marker Sca-1 with a small molecule library. The source says:
The X axis crosses at the level of Sca-1 fluorescence measured in cells with the vehicle only control (DMSO). Bars up thus represent an increase in Sca-1 and Bars down represent a decrease. Each bar represents a different chemical treatment.
The CK1750 and SC241 cell lines derived from K-ras; p53fl/fl mouse adenocarcinoma tumors are highly enriched for Sca-1 and CD24. These cell lines were screened for factors that alter the expression of Sca1, CD24 or both markers, using the Stem Cell Core's Pilot Known Bioactives library, a small molecule library enriched in inhibitors of chromatin regulators (FIG. 1).

The subject of assay [3] is BASC 3D co-culture. Kind of assay: BASC 3D co-culture resorted by FACS for Sca-1 expressing cells. The following applies: 3D cultures after 3 weeks growth, vs DMSO control (FIG. 2). A general note: A flow cytometer gives signals particle by particle.
Assay [4] relates to Sca-1−ve and Sca-1+ve sorted cells. Kind of assay: Quantification of organoid morphologies from Sca-1 sorted cells. On the procedure:
as §1, §3

In assay [5] the test system is AT2 (Alveolar Type 2) cultures. Kind of assay: 3D organoid culture of AT2 cells: organoid formation. The following applies: AT2 cultures (FIG. 3).
Description: as §2

In the case of `COc1cc2c(NC3CCN(C(C)C)CC3)nc(C3CCCCC3)nc2cc1OCCCN1CCCC1` [UNC0638], in assay [1] (250 nM (FIG. 5)), the alveolar colony formation entry is “reduces” and the ciliated organoid formation result is “increase”. The “organoids with visible movement” value in assay [1] (250 nM, vs control cultures) is reported as “more frequent”. Moreover, the “organoids with alveolar morphology” value in assay [1] (BASC cultures (FIG. 3)) is “significantly fewer”. Moreover, the “organoids that resemble the large airways of the lung” value in assay [1] (lung stem cell cultures, beating multiciliated, goblet like and P63+ Kertatin 5+ cells) was “more organoids”. In addition, the “H&E staining of Acetylated tubulin positive organoids” value in assay [1] (treated cultures) is recorded as “many of the cells are muticiliated”. Also, the “organoids that stained with Acetylated tubulin, a marker of Ciliated cells” value in assay [1] (treated cultures vs control) was “significantly more”. The alveolar organoid differentiation entry in assay [1] (vs DMSO control, *=P<0.05, two tailed independent samples T-test (FIG. 4, FIG. 5)) is given as “reduces”. Besides, the ciliated organoid differentiation result in assay [1] (vs DMSO, *=P<0.05, two tailed independent samples T-test (FIG. 5)) is on record as “increases”. The “change in Sca-1 on the cell surface” value in assay [2] (among library chemicals, vs DMSO vehicle control (FIG. 1)) is reported as “largest increase in Sca-1”. In addition, in assay [2] (flow cytometry screen of adenocarcinoma cell lines), the “enrichment for high Sca-1 expressing, TPC-like cells” value was “enriches for high Sca-1 expressing, TPC-like cells”. Also, the “Sca-1 expressing cells among stem cell-derived cells” value in assay [3] is recorded as “many more Sca-1 expressing cells”. For the same compound, in assay [4] (Sca-1+ve (FIG. 4)), the “proportion of alveolar organoids” value is on record as “reduces” and the “proportion of small, undifferentiated organoids” value is on record as “increases”. The organoid formation result in assay [4] (Sca-1−ve sorted cells (FIG. 4)) is recorded as “significantly reduces”. The number of organoids result in assay [5] is given as “significantly fewer organoids”.
